Values after ≈ are worked out from the molar mass of the structure shown. Active and inactive are the calls of the source. No cut-off for these calls is given here.
Columns and labels:
[1] = tested on: HT-1080; assay: (§1) Cytotoxicity against human HT1080 cells assessed as cell viability at 6.25 to 50 ug/ml by crystal violet-based assay; assay type: functional
[2] = tested on: MG-22A; assay: Cytotoxicity against mouse MG-22A cells assessed as cell viability at 6.25 to 50 ug/ml after 72 hrs by MTT assay; assay type: functional; details: for CC50: read-out: LC50 (the source's name)
[3] = tested on: MG-22A; assay: Cytotoxicity against mouse MG-22A cells assessed as cell viability at 6.25 to 50 ug/ml by crystal violet-based assay; assay type: functional; details: for CC50: read-out: LC50 (the source's name)
[4] = tested on: MG-22A; assay: Induction of nitric oxide production in mouse MG-22A cells by Griess assay; assay type: functional; design: concentration or dose not given beside the values
[5] = tested on: HT-1080; assay: Induction of nitric oxide production in human HT1080 cells by Griess assay; assay type: functional; design: concentration or dose not given beside the values
[6] = tested on: HT-1080; assay: (§2) Cytotoxicity against human HT1080 cells assessed as cell viability at 6.25 to 50 ug/ml after 72 hrs by MTT assay; assay type: functional
[7] = tested on: Candida albicans; assay: Antifungal activity against Candida albicans MSCL 378 at 5 mg/ml after 48 hrs by agar dish diffusion method; assay type: functional; details: MSCL 378, 48 h, read-out: DIZ
[8] = tested on: Bacillus cereus; assay: Antibacterial activity against Bacillus cereus MSCL 330 at 5 mg/ml after 24 hrs by agar dish diffusion method; assay type: functional; details: for zone of inhibition at 5000 µg/mL: MSCL 330, 24 h, read-out: DIZ
[9] = tested on: Staphylococcus aureus; assay: Bactericidal activity against Staphylococcus aureus MSCL 334 incubated for 24 hrs followed by colony transfer to agar plates for 24 hrs by colony counting based assay; assay type: functional; details: MSCL 334, 24 h, read-out: MBC99.9
[10] = as §1; assay type: functional; details: HT-1080, read-out: LC50 (the source's name)
[11] = tested on: Pseudomonas aeruginosa; assay: Antibacterial activity against Pseudomonas aeruginosa MSCL 331 at 5 mg/ml after 24 hrs by agar dish diffusion method; assay type: functional
[12] = tested on: Bacillus cereus; assay: Bactericidal activity against Bacillus cereus MSCL 330 incubated for 24 hrs followed by colony transfer to agar plates for 24 hrs by colony counting based assay; assay type: functional; details: MSCL 330, 24 h, read-out: MBC99.9
[13] = tested on: Aspergillus niger; assay: Antifungal activity against Aspergillus niger MSCL 324 at 10 mg/ml after 48 hrs by agar dish diffusion method; assay type: functional; details: MSCL 324, 48 h, read-out: DIZ
[14] = tested on: Proteus mirabilis; assay: Antibacterial activity against Proteus mirabilis MSCL 590 at 10 mg/ml after 24 hrs by agar dish diffusion method; assay type: functional
[15] = tested on: Aspergillus niger; assay: Antifungal activity against Aspergillus niger MSCL 324 after 24 hrs by broth dilution method; assay type: functional; details: MSCL 324, 24 h
[16] = Cytotoxicity against mouse NIH/3T3 cells assessed as cell viability at 6.25 to 50 ug/ml by neutral red-based assay; details: nih3t3
[17] = tested on: Escherichia coli; assay: Antibacterial activity against Escherichia coli MSCL 332 at 10 mg/ml after 24 hrs by agar dish diffusion method; assay type: functional
[18] = tested on: Aspergillus niger; assay: Fungicidal activity against Aspergillus niger MSCL 324 incubated for 24 hrs followed by colony transfer to agar plates for 24 hrs by colony counting based assay; assay type: functional; details: MSCL 324, 24 h, read-out: MFC99.9
[19] = tested on: Bacillus cereus; assay: Antibacterial activity against Bacillus cereus MSCL 330 at 10 mg/ml after 24 hrs by agar dish diffusion method; assay type: functional; details: for zone of inhibition at 10000 µg/mL: MSCL 330, 24 h, read-out: DIZ
[20] = tested on: Aspergillus niger; assay: Antifungal activity against Aspergillus niger MSCL 324 at 5 mg/ml after 48 hrs by agar dish diffusion method; assay type: functional; details: for zone of inhibition at 5000 µg/mL: MSCL 324, 48 h, read-out: DIZ
[21] = tested on: Staphylococcus aureus; assay: Antibacterial activity against Staphylococcus aureus MSCL 334 at 10 mg/ml after 24 hrs by agar dish diffusion method; assay type: functional; details: for zone of inhibition at 10000 µg/mL: MSCL 334, 24 h, read-out: DIZ
[22] = tested on: Bacillus cereus; assay: Antibacterial activity against Bacillus cereus MSCL 330 after 24 hrs by broth dilution method; assay type: functional; details: MSCL 330, 24 h
[23] = tested on: Proteus mirabilis; assay: Antibacterial activity against Proteus mirabilis MSCL 590 at 5 mg/ml after 24 hrs by agar dish diffusion method; assay type: functional
[24] = tested on: Staphylococcus aureus; assay: Antibacterial activity against Staphylococcus aureus MSCL 334 after 24 hrs by broth dilution method; assay type: functional; details: MSCL 334, 24 h
[25] = tested on: Candida albicans; assay: Antifungal activity against Candida albicans MSCL 378 after 24 hrs by broth dilution method; assay type: functional; details: MSCL 378, 24 h
[26] = tested on: Candida albicans; assay: Antifungal activity against Candida albicans MSCL 378 at 10 mg/ml after 48 hrs by agar dish diffusion method; assay type: functional; details: MSCL 378, 48 h, read-out: DIZ
[27] = tested on: Staphylococcus aureus; assay: Antibacterial activity against Staphylococcus aureus MSCL 334 at 5 mg/ml after 24 hrs by agar dish diffusion method; assay type: functional; details: for zone of inhibition at 5000 µg/mL: MSCL 334, 24 h, read-out: DIZ
[28] = tested on: Pseudomonas aeruginosa; assay: Antibacterial activity against Pseudomonas aeruginosa MSCL 331 at 10 mg/ml after 24 hrs by agar dish diffusion method; assay type: functional
[29] = tested on: Escherichia coli; assay: Antibacterial activity against Escherichia coli MSCL 332 at 5 mg/ml after 24 hrs by agar dish diffusion method; assay type: functional
[30] = as §2; assay type: functional; details: HT-1080, 72 h, read-out: LC50 (the source's name)
[31] = tested on: Candida albicans; assay: Fungicidal activity against Candida albicans MSCL 378 incubated for 24 hrs followed by colony transfer to agar plates for 24 hrs by colony counting based assay; assay type: functional; details: MSCL 378, 24 h, read-out: MFC99.9

Cc1ncsc1CCO
LC50 [1]: inactive
LC50 [2]: inactive
LC50 [3]: inactive
Activity [4]: 4%
Activity [5]: 4%
LC50 [6]: inactive

CCCCCCCOCCc1scnc1C
zone of inhibition at 5000 µg/mL [7]: 13 mm
zone of inhibition at 5000 µg/mL [8]: 12 mm
MBC [9]: 64 µg/mL (≈ 265 µM)
CC50 [10]: 62.2 µM
diameter of the inhibition zone (DIZ) [11]: inactive
MBC [12]: > 256 µg/mL
CC50 [2]: 49.7 µM
CC50 [3]: 37.3 µM
zone of inhibition at 10000 µg/mL [13]: 15 mm
diameter of the inhibition zone (DIZ) [14]: inactive
MIC [15]: 16 µg/mL (≈ 66.3 µM)
LC50 [16]: 224 µM
diameter of the inhibition zone (DIZ) [17]: inactive
MFC [18]: 256 µg/mL (≈ 1060 µM)
zone of inhibition at 10000 µg/mL [19]: 12 mm
Activity [4]: 200%
zone of inhibition at 5000 µg/mL [20]: 15 mm
zone of inhibition at 10000 µg/mL [21]: 15 mm
MIC [22]: 64 µg/mL (≈ 265 µM)
diameter of the inhibition zone (DIZ) [23]: inactive
MIC [24]: 16 µg/mL (≈ 66.3 µM)
Activity [5]: 200%
MIC [25]: 64 µg/mL (≈ 265 µM)
zone of inhibition at 10000 µg/mL [26]: 13 mm
zone of inhibition at 5000 µg/mL [27]: 11 mm
diameter of the inhibition zone (DIZ) [28]: inactive
diameter of the inhibition zone (DIZ) [29]: inactive
CC50 [30]: 70.5 µM
MFC [31]: 128 µg/mL (≈ 530 µM)

CCCCCCCCCCCOCCc1scnc1C
zone of inhibition at 5000 µg/mL [7]: 14 mm
zone of inhibition at 5000 µg/mL [8]: 10 mm
CC50 [10]: 53.8 µM
diameter of the inhibition zone (DIZ) [11]: inactive
CC50 [2]: 53.8 µM
CC50 [3]: 47.1 µM
zone of inhibition at 10000 µg/mL [13]: 15 mm
zone of inhibition at 10000 µg/mL ([14]; MSCL 590, 24 h, read-out: DIZ): 10 mm
LC50 [16]: 47.1 µM
zone of inhibition at 10000 µg/mL ([17]; MSCL 332, 24 h, read-out: DIZ): 10 mm
zone of inhibition at 10000 µg/mL [19]: 11 mm
Activity [4]: 100%
zone of inhibition at 5000 µg/mL [20]: 9 mm
zone of inhibition at 10000 µg/mL [21]: 13 mm
zone of inhibition at 5000 µg/mL ([23]; MSCL 590, 24 h, read-out: DIZ): 8 mm
Activity [5]: 100%
zone of inhibition at 10000 µg/mL [26]: 15 mm
zone of inhibition at 5000 µg/mL [27]: 10 mm
zone of inhibition at 10000 µg/mL ([28]; MSCL 331, 24 h, read-out: DIZ): 10 mm
zone of inhibition at 5000 µg/mL ([29]; MSCL 332, 24 h, read-out: DIZ): 9 mm
CC50 [30]: 50.5 µM

CCCCCCCCCCCCCCCCCCOCCc1scnc1C
zone of inhibition at 5000 µg/mL [7]: 10 mm
diameter of the inhibition zone (DIZ) [8]: inactive
CC50 [10]: > 100 µg/mL
diameter of the inhibition zone (DIZ) [11]: inactive
CC50 [2]: > 100 µg/mL
CC50 [3]: > 100 µg/mL
zone of inhibition at 10000 µg/mL [13]: 11 mm
diameter of the inhibition zone (DIZ) [14]: inactive
MIC [15]: > 256 µg/mL
LC50 [16]: 528 µg/mL
diameter of the inhibition zone (DIZ) [17]: inactive
MFC [18]: > 256 µg/mL
diameter of the inhibition zone (DIZ) [19]: inactive
Activity [4]: 5%
diameter of the inhibition zone (DIZ) [20]: inactive
diameter of the inhibition zone (DIZ) [21]: inactive
diameter of the inhibition zone (DIZ) [23]: inactive
Activity [5]: 4%
MIC [25]: > 256 µg/mL
zone of inhibition at 10000 µg/mL [26]: 14 mm
diameter of the inhibition zone (DIZ) [27]: inactive
diameter of the inhibition zone (DIZ) [28]: inactive
diameter of the inhibition zone (DIZ) [29]: inactive
CC50 [30]: > 100 µg/mL
MFC [31]: > 256 µg/mL

Source: ChEMBL document CHEMBL3751718, “Synthesis and biological evaluation of lipid-like 5-(2-hydroxyethyl)-4-methyl-1,3-thiazole derivatives as potential anticancer and antimicrobial agents” (Medchemcomm, 2015)
